# From US7598234B2, “Steroid derived antibiotics” (Brigham Young University, priority 1998, dated 2009)
# Legend:
# E. coli (ATCC 10798) [1] = test: MIC and MBC measurement with E. coli (ATCC 10798); format: cell-based, Escherichia coli
# How it was run: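 Inocula mixed 1:1 with TSB containing graded concentrations of cholic acid derivatives, alone or with erythromycin or novobiocin added 15 min later. After static incubation for 24 h at 37 °C, turbidity read at 760 nm; non-turbid samples subcultured on TSA and CFU/mL compared with the starting inoculum.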
# E. coli (ATCC 10798) [2] = test: Sensitization to erythromycin (concentration lowering the MIC of erythromycin), E. coli (ATCC 10798); format: cell-based, Escherichia coli; conditions: for (a) Concentration required to lower the MIC of erythromycin from 70 to 1 μg/mL / (b) MBC with 1 μg/mL erythromycin / FIC values with erythromycin: Table 9, Escherichia coli (ATCC 10798); for MIC: concentration required to lower the MIC of erythromycin from 70 μg/mL to 1 μg/mL / MBC (with erythromycin): Table 2, E. coli (ATCC 10798); for MBC (with erythromycin): erythromycin sensitization
# E. coli (ATCC 25922) [3] = test: MIC and MBC measurement with E. coli (ATCC 25922); format: cell-based, Escherichia coli
# How it was run: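 Bacteria incubated statically 24 h at 37 °C in TSB with graded compound concentrations (erythromycin or novobiocin added 15 min later in sensitization runs). MIC from turbidity at 760 nm; MBC by subculturing clear samples on TSA and comparing CFU/mL to inoculum.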
# E. coli (ATCC 25922) [4] = test: Sensitization to erythromycin, E. coli (ATCC 25922); format: cell-based, Escherichia coli; conditions: for FIC / concentration required to inhibit bacterial growth with antibiotic: Table 11, Escherichia coli ATCC 25922; for FIC: erythromycin (by order); for concentration required to inhibit bacterial growth with antibiotic: erythromycin (by order) at 0.5, 1.0 or 3.0 μg/mL; for MIC: concentration required to lower the MIC of erythromycin from 60 μg/mL to 1 μg/mL / MBC (with erythromycin): Table 5, E. coli (ATCC 25922); for MBC (with erythromycin): erythromycin sensitization
# How it was run: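 Bacteria grown in TSB with varied cholic acid derivative concentrations; erythromycin (0.5, 1.0 or 3.0 μg/mL) added 15 min later; stationary incubation 37° C, 24 h. Growth read as absorbance at 760 nm, with clear samples subcultured on TSA for CFU/mL; derivative concentration inhibiting growth determined.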
# [5] = test system: Pseudomonas aeruginosa (ATCC 27853); test: Sensitization to novobiocin, Pseudomonas aeruginosa (ATCC 27853); format: cell-based; conditions: for FIC / concentration required to inhibit bacterial growth with antibiotic: Table 12, Pseudomonas aeruginosa ATCC 27853; for FIC: novobiocin (by order); for concentration required to inhibit bacterial growth with antibiotic: novobiocin (by order) at 0.5, 1.0 or 3.0 μg/mL; for MIC: concentration required to lower the MIC of novobiocin from >500 μg/mL to 1 μg/mL: Table 8, P. aureginosa (ATCC 27853)
# How it was run: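 Tube checkerboard in TSB: cholic acid derivatives added, then erythromycin or novobiocin 15 min later, antibiotics at 0.5, 1.0 or 3.0 μg/mL; stationary 37 °C, 24 h. Turbidity read at 760 nm; clear samples subcultured on TSA for CFU counts versus inoculum; FIC derived for synergy.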
# [6] = test system: Candida albicans ATCC 90028; test: MIC and MBC measurement with Candida albicans ATCC 90028; format: cell-based; conditions: Table 10
# From the text: General: Microorganisms. Reference strains were purchased from the American Type Culture Collection (Rockville, Md.) or Bactrol disks from Difeo Laboratories (Detroit, Mich.). The following specific ATCC strains were used: 10798 Escherichia coli, 25922 Escherichia coli, 13883 Klebsiella pneumoniae, 27853 Pseudomonas aeruginosa, 14028 Salmonella typhimurium, 29212 Enterococcus faecalis, 25923 Staphylococcus aureus, 19615 Streptococcus pyogenes, and 90028 Candida albicans. Bacterial strains were maintained on Mueller-Hinton agar plates, and Candida albicans was maintained on Sabouraud Dextrose agar plates.
# Tryptic soy broth (TSB) was made by dissolving 27.5 grams of tryptic soy broth without dextrose (DIFCO Laboratories) in 1 liter of deionized water and sterilizing at 121° C. for 15 minutes. Solid agar (TSA) plates were made by dissolving 6.4 grams of tryptic soy broth and 12 grams of agar (purified grade, Fischer Scientific) in 800 mL of deionized water and sterilizing at 121° C. for 20 minutes. Aliquots (20 mL) of the homogeneous solution were then poured in sterile plastic petri dishes (100×15 mm, Fisher Scientific). Solutions of compounds were made by dissolving the HCl salt of the respective compound into an appropriate amount of deionized and sterilized water followed by microfiltration.
# (§1) Aliquots of 1 mL of the suspension were added to test tubes containing 1 mL TSB and incrementally varied concentrations of cholic acid derivatives and/or erythromycin or novobiocin. In the sensitization experiments, erythromycin or novobiocin were added 15 minutes later than the cholic acid derivatives. The samples were subjected to stationary incubation at 37° C. for 24 hours. Sample turbidity was determined by measuring absorption at 760 nm (HP 8453 UV-Visible Chemstation, Hewlett Packard). Additionally, an alliquot from each of the samples showing no measurable turbidity was subcultured on TSA plates (alliquots were diluted to provide fewer than 300 CFU). Colonies that grew on the subculture after overnight incubation were counted and the number of CFU/mL in the samples were calculated. The calculated values were compared to the number of CFU/mL in the original inoculum.
# [7] = test system: Salmonella typhimurium ATCC 14028; test: Growth inhibition and FIC with novobiocin, Salmonella typhimurium ATCC 14028; format: cell-based; conditions: for FIC: Table 12, novobiocin (by order); for concentration required to inhibit bacterial growth with antibiotic: Table 12, novobiocin (by order) at 0.5, 1.0 or 3.0 μg/mL
# Method: (§2) Alternatively, “fractional inhibitory concentration (FIC)” is also useful for determination of synergy between the compounds of the invention, or the compounds in combination with known antibiotics. FICs can be performed by checkerboard titrations of compounds in one dimension of a microtiter plate, and of antibiotics in the other dimension, for example. The FIC is calculated by looking at the impact of one antibiotic on the MIC of the other and vice versa. […] Preferably, an FIC of less than 0.5 is obtained for synergism. As used herein, FIC can be determined as follows:
# as §1
# (§3) To measure permeabilization, the FIC values for compounds 1, 2, 5, 106, 10, 112, 133, and 134 with erythromycin, novobiocin, and rifampicin were determined. Concentrations of 0.5, 1.0 or 3.0 μg/mL of these antibiotics were used, and the concentrations of the cholic acid derivatives required to inhibit bacterial growth of Gram-negative strains were determined.
# [8] = test system: Escherichia coli ATCC 25922; test: Growth inhibition and FIC with rifampicin, Escherichia coli ATCC 25922; format: cell-based; conditions: for FIC: Table 13, rifampicin (by order); for concentration required to inhibit bacterial growth with antibiotic: Table 13, rifampicin (by order) at 0.5, 1.0 or 3.0 μg/mL
# Method: as §2, §1, §3
# [9] = test system: Klebsiella pneumonia ATCC 13883; test: Growth inhibition and FIC with rifampicin, Klebsiella pneumoniae ATCC 13883; format: cell-based; conditions: for FIC: Table 13, rifampicin (by order); for concentration required to inhibit bacterial growth with antibiotic: Table 13, rifampicin (by order) at 0.5, 1.0 or 3.0 μg/mL
# Method: as §2, §1, §3
# [10] = Table 9, Escherichia coli (ATCC 10798)
# [11] = Table 10, Escherichia coli ATCC 25922
SMILES,MBC (E. coli (ATCC 10798) [1]; [10]) [µg/mL],MIC (E. coli (ATCC 10798) [1]; [10]) [µg/mL],(a) Concentration required to lower the MIC of erythromycin from 70 to 1 μg/mL (E. coli (ATCC 10798) [2]) [µg/mL],(b) MBC with 1 μg/mL erythromycin (E. coli (ATCC 10798) [2]) [µg/mL],FIC values with erythromycin (E. coli (ATCC 10798) [2]),MBC (E. coli (ATCC 25922) [3]; [11]) [µg/mL],MIC (E. coli (ATCC 25922) [3]; [11]) [µg/mL],FIC (E. coli (ATCC 25922) [4]),concentration required to inhibit bacterial growth with antibiotic (E. coli (ATCC 25922) [4]) [µg/mL],FIC [5],concentration required to inhibit bacterial growth with antibiotic [5] [µg/mL],MBC [6] [µg/mL],MIC [6] [µg/mL],FIC [7],concentration required to inhibit bacterial growth with antibiotic [7] [µg/mL],FIC [8],concentration required to inhibit bacterial growth with antibiotic [8] [µg/mL],FIC [9],concentration required to inhibit bacterial growth with antibiotic [9] [µg/mL],"MBC (E. coli (ATCC 10798) [1]; Table 1, E. coli (ATCC 10798)) [µg/mL]",also measured
CCCOCCC[C@@H](C)[C@H]1CC[C@H]2[C@@H]3[C@H](OCCCN)C[C@@H]4C[C@H](OCCCN)CC[C@]4(C)[C@H]3C[C@H](OCCCN)[C@]12C [Compound 112],17,12,0.4,4.0,0.048,7.4,6.6,0.12,0.59,0.17,0.72,45,41,0.015,0.39,0.19,0.81,0.031,0.11,–,–
C[C@H](CCCN(C)Cc1ccccc1)[C@H]1CC[C@H]2[C@@H]3[C@H](OCCCN)C[C@@H]4C[C@H](OCCCN)CC[C@]4(C)[C@H]3C[C@H](OCCCN)[C@]12C [Compound 2],–,–,–,–,–,6.8,5.1,0.078,0.23,0.27,2.9,42,30,0.36,4.5,0.22,0.80,0.035,0.12,16,"MIC (E. coli (ATCC 10798) [1]; Table 1, E. coli (ATCC 10798)): 7 µg/mL; MIC: concentration required to lower the MIC of erythromycin from 70 μg/mL to 1 μg/mL (E. coli (ATCC 10798) [2]): 1 µg/mL; MBC (with erythromycin) (E. coli (ATCC 10798) [2]): 10 µg/mL; MBC (E. coli (ATCC 25922) [3]; Table 4, E. coli (ATCC 25922)): 20 µg/mL; MIC (E. coli (ATCC 25922) [3]; Table 4, E. coli (ATCC 25922)): 10 µg/mL; MIC: concentration required to lower the MIC of erythromycin from 60 μg/mL to 1 μg/mL (E. coli (ATCC 25922) [4]): 1 µg/mL; MBC (with erythromycin) (E. coli (ATCC 25922) [4]): 5 µg/mL; MIC: concentration required to lower the MIC of novobiocin from >500 μg/mL to 1 μg/mL [5]: 4 µg/mL"
C[C@]12CC[C@@H](OCCCN)C[C@H]1C[C@@H](OCCCN)[C@@H]1[C@@H]2C[C@H](OCCCN)[C@]2(C)[C@@H](O)CC[C@@H]12 [Compound 106],>200,140,30,160,0.23,90,80,0.073,3.2,0.36,30,92,75,0.094,8.4,0.12,4.2,0.044,1.8,–,–
C[C@H](CCCN(C)Cc1ccccc1)[C@H]1CC[C@H]2[C@@H]3[C@H](OCCN)C[C@@H]4C[C@H](OCCN)CC[C@]4(C)[C@H]3C[C@H](OCCN)[C@]12C [Compound 1],–,–,–,–,–,22,22,0.15,2.5,0.16,3.9,>50,49,0.22,4.4,0.099,0.74,0.043,0.40,34,"MIC (E. coli (ATCC 10798) [1]; Table 1, E. coli (ATCC 10798)): 20 µg/mL; MIC: concentration required to lower the MIC of erythromycin from 70 μg/mL to 1 μg/mL (E. coli (ATCC 10798) [2]): 2 µg/mL; MBC (with erythromycin) (E. coli (ATCC 10798) [2]): 20 µg/mL; MBC (E. coli (ATCC 25922) [3]; Table 4, E. coli (ATCC 25922)): 40 µg/mL; MIC (E. coli (ATCC 25922) [3]; Table 4, E. coli (ATCC 25922)): 25 µg/mL; MIC: concentration required to lower the MIC of erythromycin from 60 μg/mL to 1 μg/mL (E. coli (ATCC 25922) [4]): 2 µg/mL; MBC (with erythromycin) (E. coli (ATCC 25922) [4]): 14 µg/mL; MIC: concentration required to lower the MIC of novobiocin from >500 μg/mL to 1 μg/mL [5]: 6 µg/mL"
